Source: US9670221B2, “Furopyridines as bromodomain inhibitors” (GlaxoSmithKline Intellectual Property (No.2) Limited, priority 2013, dated 2017)
Structures can show the parent of a compound that is named as a salt.

Biological target: T1, BRD4 BD1 (Homo sapiens, UniProt O60885, Y390A)
T1 construct: BRD4 (1-477) (Y97A) and (Y390A); made in house; host or cells: E. coli (pET15b vector)
Assay: TR-FRET binding assay, BRD4 BD1 (mutant protein)
Settings: BRD4 (1-477) mutant, 10 nM protein, read-out: pIC50 in the BRD4 BD1 assay (converted)
Protocol: Time Resolved Fluorescence Resonance Energy Transfer (TR-FRET) Assay
Binding was assessed using a time resolved fluorescent resonance energy transfer binding assay. This utilises a 6 His purification tag at the N-terminal of the proteins as an epitope for an anti-6 His antibody labeled with Europium chelate (PerkinElmer AD0111) allowing binding of the Europium to the proteins which acts as the donor fluorophore. A small molecule, high affinity binder of the bromodomains BRD2, BRD3, BRD4 and BRDT has been labeled with Alexa Fluor647 (Reference Compound X) and this acts as the acceptor in the FRET pair.
Assay Principle: In the absence of a competing compound, excitation of the Europium causes the donor to emit at λ618 nm which excites the Alexa labelled bromodomain binding compound leading to an increased energy transfer that is measurable at λ647 […]. In the presence of a sufficient concentration of a compound that can bind these proteins, the interaction is disrupted leading to a quantifiable drop in fluorescent resonance energy transfer.
The binding of the compounds of formula (I) to Bromodomains BRD2, BRD3, BRD4 and BRDT was assessed using mutated proteins to detect differential binding to either Binding Domain 1 (BD1) or Binding Domain 2 (BD2) on the bromodomain. These single residue mutations in the acetyl lysine binding pocket greatly lower the affinity of the fluoroligand (Reference Compound X) for the mutated domain (>1000 fold selective for the non-mutated domain). Therefore in the final assay conditions, binding of the fluoroligand to the mutated domain cannot be detected and subsequently the assay is suitable to determine the binding of compounds to the single non-mutated bromodomain.
Protein production: Recombinant Human Bromodomains [(BRD2 (1-473) (Y113A) and (Y386A), BRD3 (1-435) (Y73A) and (Y348A) BRD4 (1-477) (Y97A) and (Y390A) and BRDT (1-397) (Y66A) and (Y309A)] were expressed in E. coli cells (in pET15b vector for BRD2/3/4 and in pET28a vector for BRDT) with a 6-His tag at the N-terminal. The His-tagged Bromodomain pellet was resuspended in 50 mM HEPES (pH7.5), 300 mM NaCl, 10 mM imidazole & 1 μl/mL protease inhibitor cocktail and extracted from the E. coli cells using sonication and purified using a nickel sepharose high performance column, the proteins were washed and then eluted with a linear gradient of 0-500 mM imidazole with buffer 50 mM HEPES (pH7.5), 150 mM NaCl, 500 mM imidazole, over 20 column volumes. Final purification was completed by Superdex 200 prep grade size exclusion column. Purified protein was stored at −80° C. in 20 mM HEPES pH 7.5 and 100 mM NaCl. Protein identity was confirmed by peptide mass fingerprinting and predicted molecular weight confirmed by mass spectrometry.
Protocol for Bromodomain BRD2, 3, 4 and T, BD1^+BD2 mutant assays: All assay components were dissolved in buffer composition of 50 mM HEPES pH7.4, 50 mM NaCl, 5% Glycerol, 1 mM DTT and 1 mM CHAPS. The final concentration of bromodomain proteins were 10 nM and the Alexa Fluor647 ligand was at Kd. These components were premixed and 5 μl of this reaction mixture was added to all wells containing 50 nl of various concentrations of test compound or DMSO vehicle (0.5% DMSO final) in Greiner 384 well black low volume microtitre plates and incubated in dark for 30 minutes at room temperature. 5 μl of detection mixture containing 1.5 nM final concentration anti-6His Europium chelate was added to all wells and a further dark incubation of at least 30 minutes was performed. Plates were then read on the Envision platereader, (λex=317 nm, donor λem=615 nm; acceptor λem=665 nm; Dichroic LANCE dual). Time resolved fluorescent intensity measurements were made at both emission wavelengths and the ratio of acceptor/donor was calculated and used for data analysis. All data was normalized to the mean of 16 high (inhibitor control—Example 11 of WO 2011/054846A1) and 16 low (DMSO) control wells on each plate. […]

SMILES: CC(c1cc2c(=O)n(C)cc(-c3ccnc(OCC4CCOCC4)c3)c2o1)N1CCN(S(C)(=O)=O)CC1 (single isomer, unassigned) [Example 21a, 5-methyl-2-(1-(4-(methylsulfonyl)piperazin-1-yl)ethyl)-7-(2-((tetrahydro-2H-pyran-4-yl)methoxy)pyridin-4-yl)furo[3,2-c]pyridin-4(5H)-one]
- IC50: ≤ 100 nM

SMILES: COc1ccc(-c2cn(C)c(=O)c3cc(CN4CCN(S(C)(=O)=O)CC4)oc23)cc1OC [Example 1, 7-[3,4-bis(methyloxy)phenyl]-5-methyl-2-{[4-(methylsulfonyl)-1-piperazinyl]methyl}furo[3,2-c]pyridin-4(5H)-one]
- IC50: ≤ 100 nM

SMILES: CC(=O)Nc1cc(-c2cn(C)c(=O)c3cc(CN4CCN(S(C)(=O)=O)C[C@H]4C)oc23)ccn1 [Example 2, (R)—N-(4-(5-methyl-2-((2-methyl-4-(methylsulfonyl)piperazin-1-yl)methyl)-4-oxo-4,5-dihydrofuro[3,2-c]pyridin-7-yl)pyridin-2-yl)acetamide]
- IC50: ≤ 100 nM

SMILES: Cn1cc(-c2cccc(OCc3ccccc3)c2)c2oc(CN3CCN(S(C)(=O)=O)CC3)cc2c1=O [Example 3, 7-(3-(benzyloxy)phenyl)-5-methyl-2-((4-(methylsulfonyl)piperazin-1-yl)methyl)furo[3,2-c]pyridin-4(5H)-one]
- IC50: ≤ 100 nM

SMILES: Cn1cc(-c2cccc(NCc3ccccc3)c2)c2oc(CN3CCN(S(C)(=O)=O)CC3)cc2c1=O [Example 4, 7-(3-(benzylamino)phenyl)-5-methyl-2-((4-(methylsulfonyl)piperazin-1-yl)methyl)furo[3,2-c]pyridin-4(5H)-one]
- IC50: ≤ 100 nM

SMILES: Cn1cc(-c2ccnc(OCC3CCOCC3)c2)c2oc(CN3CCN(S(C)(=O)=O)CC3)cc2c1=O [Example 7, 5-methyl-2-((4-(methylsulfonyl)piperazin-1-yl)methyl)-7-(2-((tetrahydro-2H-pyran-4-yl)methoxy)pyridin-4-yl)furo[3,2-c]pyridin-4(5H)-one]
- IC50: ≤ 100 nM

SMILES: COc1ccc(-c2cn(C)c(=O)c3cc(CN4CCN(S(C)(=O)=O)C[C@H]4C)oc23)cc1OC [Example 10, (R)-7-(3,4-dimethoxyphenyl)-5-methyl-2-((2-methyl-4-(methylsulfonyl)piperazin-1-yl)methyl)furo[3,2-c]pyridin-4(5H)-one]
- IC50: ≤ 100 nM

SMILES: CC(Oc1cncc(-c2cn(C)c(=O)c3cc(CN4CCN(S(C)(=O)=O)CC4)oc23)c1)c1ccccc1 (stereo not drawn) [Example 12, 5-methyl-2-((4-(methylsulfonyl)piperazin-1-yl)methyl)-7-(5-(1-phenylethoxy)pyridin-3-yl)furo[3,2-c]pyridin-4(5H)-one]
- IC50: ≤ 100 nM

SMILES: CC(Nc1cc(-c2cn(C)c(=O)c3cc(CN4CCN(S(C)(=O)=O)CC4)oc23)ccn1)c1ccccc1 (stereo not drawn) [Example 14, 5-methyl-2-((4-(methylsulfonyl)piperazin-1-yl)methyl)-7-(2-((1-phenylethyl)amino)pyridin-4-yl)furo[3,2-c]pyridin-4(5H)-one]
- IC50: ≤ 100 nM

SMILES: CC(Nc1cccc(-c2cn(C)c(=O)c3cc(CN4CCN(S(C)(=O)=O)CC4)oc23)c1)c1ccccc1 (stereo not drawn) [Example 15, 5-methyl-2-((4-(methylsulfonyl)piperazin-1-yl)methyl)-7-(3-((1-phenylethyl)amino)phenyl)furo[3,2-c]pyridin-4(5H)-one]
- IC50: ≤ 100 nM

SMILES: CC(c1cc2c(=O)n(C)cc(-c3ccnc(OCC4CCOCC4)c3)c2o1)N1CCN(S(C)(=O)=O)CC1 (stereo not drawn) [Example 21, 5-methyl-2-(1-(4-(methylsulfonyl)piperazin-1-yl)ethyl)-7-(2-((tetrahydro-2H-pyran-4-yl)methoxy)pyridin-4-yl)furo[3,2-c]pyridin-4(5H)-one formate]
- IC50: ≤ 100 nM

SMILES: C[C@@H]1CN(S(C)(=O)=O)CCN1Cc1cc2c(=O)n(C)cc(-c3ccnc(OCC4CC4)c3)c2o1 [Example 23, (R)-7-(2-(cyclopropylmethoxy)pyridin-4-yl)-5-methyl-2-((2-methyl-4-(methylsulfonyl)piperazin-1-yl)methyl)furo[3,2-c]pyridin-4(5H)-one]
- IC50: ≤ 100 nM

SMILES: C[C@@H]1CN(S(C)(=O)=O)CCN1Cc1cc2c(=O)n(C)cc(-c3ccnc(NC(=O)C4CC4)c3)c2o1 [Example 24, (R)—N-(4-(5-methyl-2-((2-methyl-4-(methylsulfonyl)piperazin-1-yl)methyl)-4-oxo-4,5-dihydrofuro[3,2-c]pyridin-7-yl)pyridin-2-yl)cyclopropanecarboxamide]
- IC50: ≤ 100 nM

SMILES: CCC(=O)Nc1cc(-c2cn(C)c(=O)c3cc(CN4CCN(S(C)(=O)=O)C[C@H]4C)oc23)ccn1 [Example 25, (R)—N-(4-(5-methyl-2-((2-methyl-4-(methylsulfonyl)piperazin-1-yl)methyl)-4-oxo-4,5-dihydrofuro[3,2-c]pyridin-7-yl)pyridin-2-yl)propionamide]
- IC50: ≤ 100 nM

SMILES: COCCOc1cc(-c2cn(C)c(=O)c3cc(CN4CCN(S(C)(=O)=O)C[C@H]4C)oc23)ccn1 [Example 26, (R)-7-(2-(2-methoxyethoxy)pyridin-4-yl)-5-methyl-2-((2-methyl-4-(methylsulfonyl)piperazin-1-yl)methyl)furo[3,2-c]pyridin-4(5H)-one]
- IC50: ≤ 100 nM

SMILES: C[C@@H]1CN(S(C)(=O)=O)CCN1Cc1cc2c(=O)n(C)cc(-c3ccnc(OCCN4CCCC4)c3)c2o1 [Example 27, (R)-5-methyl-2-((2-methyl-4-(methylsulfonyl)piperazin-1-yl)methyl)-7-(2-(2-(pyrrolidin-1-yl)ethoxy)pyridin-4-yl)furo[3,2-c]pyridin-4(5H)-one]
- IC50: ≤ 100 nM

SMILES: CC(=O)N(C)c1cc(-c2cn(C)c(=O)c3cc(CN4CCN(S(C)(=O)=O)C[C@H]4C)oc23)ccn1 [Example 30, (R)—N-methyl-N-(4-(5-methyl-2-((2-methyl-4-(methylsulfonyl)piperazin-1-yl)methyl)-4-oxo-4,5-dihydrofuro[3,2-c]pyridin-7-yl)pyridin-2-yl)acetamide]
- IC50: ≤ 100 nM

SMILES: Cn1cc(-c2ccncc2OCC2CC2)c2oc(CN3CCN(S(C)(=O)=O)CC3)cc2c1=O [Example 31, 7-(3-(cyclopropylmethoxy)pyridin-4-yl)-5-methyl-2-((4-(methylsulfonyl)piperazin-1-yl)methyl)furo[3,2-c]pyridin-4(5H)-one]
- IC50: ≤ 100 nM

SMILES: C[C@@H]1CN(S(C)(=O)=O)CCN1Cc1cc2c(=O)n(C)cc(-c3ccncc3OCC3CC3)c2o1 [Example 32, (R)-7-(3-(cyclopropylmethoxy)pyridin-4-yl)-5-methyl-2-((2-methyl-4-(methylsulfonyl)piperazin-1-yl)methyl)furo[3,2-c]pyridin-4(5H)-one]
- IC50: ≤ 10 nM

SMILES: Cn1cc(-c2ccnc(NCc3ccccn3)c2)c2oc(CN3CCCNCC3)cc2c1=O [Example 34, 2-((1,4-diazepan-1-yl)methyl)-5-methyl-7-(2-((pyridin-2-ylmethyl)amino)pyridine-4-yl)furo[3,2-c]pyridin-4(5H)-one hydrochloride]
- IC50: ≤ 100 nM

SMILES: C[C@@H]1CN(S(C)(=O)=O)CCN1Cc1cc2c(=O)n(C)cc(-c3ccnc(OCCN4CCCC4=O)c3)c2o1 [Example 35, (R)-5-methyl-2-((2-methyl-4-(methylsulfonyl)piperazin-1-yl)methyl)-7-(2-(2-(2-oxopyrrolidin-1-yl)ethoxy)pyridin-4-yl)furo[3,2-c]pyridin-4(5H)-one]
- IC50: ≤ 10 nM
